Like-named read-outs stand apart in the source and are kept apart here.
Experiments:
E. coli Vogel = assay: In vitro antibacterial activity, MIC (modified Autotiter method); format: cell-based, Escherichia coli; details: 18-20 hours at 37° C.; for MIC: Escherichia coli, 20 h, read-out: MIC E. coli Vogel
How it was run: (§1)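 Double-strength inoculated semisynthetic broth containing glucose was dispensed onto compound dilutions. These dilutions, twofold each, were prepared in sterile water by the Autotiter from a 1,000 mcg./ml. solution, covering final levels of 500 to 0.06 mcg./ml.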

E. coli 100/B22 = assay: as above; format: cell-based, Escherichia coli; details: for MIC: Escherichia coli, 100/B22, 20 h, read-out: MIC E. coli 100/B22, 18-20 hours at 37° C.; for MIC E. coli 100/B22: 18-20 hours at 37° C.
How it was run: as §1

E. coli AB1932-1 = assay: as above; format: cell-based, Escherichia coli; details: 18-20 hours at 37° C.; for MIC: Escherichia coli, AB19321, 20 h, read-out: MIC E. coli AB1932-1
How it was run: as §1

S. Aureus ATCC 6538 = assay: Effect of serum on bacteriostatic activity (serial tube dilution test); format: cell-based, Staphyloccocus aureus; details: for Fold Increase in MIC S. Aureus ATCC 6538: 40% vs 0% horse serum; for MIC: Staphylococcus aureus, ATCC6538
S. pyogen. C203 = assay: In vitro antibacterial activity, MIC (modified Autotiter method); format: cell-based, Streptococcus pyogenes; details: 18-20 hours at 37° C.; for MIC: Streptococcus pyogenes, 20 h, read-out: MIC S. pyogen. C203
How it was run: as §1

A. niger 16404 = assay: In vitro antifungal activity, MIC (modified Autotiter method); format: cell-based, Aspergillus niger; details: 18-20 hours at 37° C.; for MIC: Aspergillus niger, 16404, 20 h, read-out: MIC A. niger 16404
How it was run: as §1

S. Aureus Smith = assay: In vitro antibacterial activity, MIC (modified Autotiter method); format: cell-based, Staphylococcus aureus; details: Staphylococcus aureus, 20 h, 18-20 hours at 37° C.; read-out: MIC S. Aureus Smith
How it was run: as §1

[1] = system: Streptococcus mutans OMZ-61; assay: Dental plaque-preventive effectiveness in the presence of sterile human saliva (50%); format: cell-based; details: for Dental Plaque Preventive Activity in 50% saliva Minimum Effective Conc. (%): 50% sterile human saliva
Method: The dental plaque preventive activity of certain of the compounds of the present invention was determined by measuring the ability of these compounds to inhibit the production of dental plaque by Streptococcus mutans OMZ-61 as follows:
A culture medium for the plaque-producing Streptococcus mutans OMZ-61 containing 1.5 g. of BBL beef extract, 5 g. of sodium chloride, 10 g. of dehydrated trypticase, 5 g. of sucrose and sufficient distilled water to give a total volume of 1000 ml. is adjusted to pH 7.0 and sterilized by membrane filtration. The medium is dispensed aseptically in 10-ml. aliquots into 150×16 mm. test tubes and stored at refrigeration temperature until used.
Two concentrations of the compound to be tested are prepared by dissolving 100 mg. of the compound in 1 ml. of distilled water with the aid of sufficient 0.1 N sodium hydroxide, 10% dimethylsulfoxide or 10% N,N-dimethylformamide and diluting the resulting solution to 10 ml. with distilled water. This 1.0% solution and a 1:10 dilution in distilled water (0.1%) are sterilized by membrane filtration before use.
A sterile piece of plaque-free natural tooth enamel or synthetic hydroxylapatite is suspended in each concentration of compound for two 1-minute periods, each followed by a 1-minute air drying period. Each piece is then suspended and agitated for 5 minutes in individual test tubes containing sterile distilled water (rinse). They are then suspended in 10 ml. of liquid beef extract medium to which has been added 0.3 ml. of a 24-hr. anaerobic culture of Streptococcus mutans. The tubes containing the "treated" hydroxylapatite and the Streptococcus mutans are then incubated anaerobically at 37° C. for 24 hours. The same process of two 1-minute soaks in the solution of compound, each followed by 1 minute of air drying and the final 5-minute rinse is repeated before once again suspending the hydroxylapatite in a fresh tube containing 10 ml. of beef extract medium and 0.3 ml. of inoculum. At the end of the second 24-hour period, each piece of hydroxylapatite is rinsed for 1 minute in 3 successive tubes of distilled water. These are then suspended for 1 minute in a solution of F, D & C Red No. 3 dye. This staining procedure is used in order to identify more easily the development of plaque after the 48-hour period of exposure to the plaque-producing organism. The staining period is followed by another 10-second rinse to remove excess dye. Any plaque formation stains a brilliant pink. […] Active compounds are tested at successively lower doses in order to determine the minimum effective concentration. On some occasions, the interference of plaque production is caused by the inhibition of growth of the organism in the culture medium because the compound has been leached from the hydroxylapatite to produce an antibacterial level in the medium. When this occurs, the compound is tested at lower concentrations until the growth of the organism in the surrounding medium is equal to that in the nonmedicated control culture. Plaque may or may not be formed at these lower concentrations.
Dental plaque-preventive effectiveness in the presence of sterile human saliva (50%) was determined for representative examples.

E. Coli ATCC 8739 = assay: Effect of serum on bacteriostatic activity (serial tube dilution test); format: cell-based, Escherichia coli; details: for Fold Increase in MIC E. Coli ATCC 8739: 40% vs 0% horse serum; for MIC: Escherichia coli, ATCC8739
How it was run: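 Bacteriostatic potency against Escherichia coli ATCC 8739 was measured with the standard serial tube dilution test. Minimum inhibitory concentrations were determined in pairs, with the test medium either lacking serum or containing 40% horse serum heat-inactivated at 56° C. for 30 min. Serum impact was reported as the fold increase in MIC (mcg./ml.).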

C. albicans Wisc. = assay: In vitro antifungal activity, MIC (modified Autotiter method); format: cell-based, Candida albicans; details: 18-20 hours at 37° C.; for MIC: Candida albicans, 20 h, read-out: MIC C. albicans Wisc.
How it was run: as §1

C. albicans 10231 = assay: as above; format: cell-based, Candida albicans; details: Candida albicans, 10231, 20 h, 18-20 hours at 37° C.; read-out: MIC C. albicans 10231
How it was run: as §1

T. menta. 9129 = assay: as above; format: cell-based, Trichophyton mentagrophytes; details: 18-20 hours at 37° C.; for MIC: Trichophyton mentagrophytes, 20 h, read-out: MIC T. menta. 9129
How it was run: as §1

[2] = 40% heat inactivated horse serum, read-out: MIC S. Aureus ATCC 6538 40% Serum
[3] = read-out: MIC S. Aureus ATCC 6538 0% Serum
[4] = 40% heat inactivated horse serum, read-out: MIC E. Coli ATCC 8739 40% Serum
[5] = read-out: MIC E. Coli ATCC 8739 0% Serum

Row | SMILES | MIC (E. coli Vogel) | MIC (E. coli 100/B22) | MIC (E. coli AB1932-1) | Fold Increase in MIC S. Aureus ATCC 6538 (S. Aureus ATCC 6538) | MIC (S. Aureus ATCC 6538; [2]) | MIC (S. Aureus ATCC 6538; [3]) | MIC (S. pyogen. C203) | MIC (A. niger 16404) | MIC (S. Aureus Smith) | Dental Plaque Preventive Activity in 50% saliva Minimum Effective Conc. (%) [1] | Fold Increase in MIC E. Coli ATCC 8739 (E. Coli ATCC 8739) | MIC (E. Coli ATCC 8739; [4]) | MIC (E. Coli ATCC 8739; [5]) | MIC (C. albicans 10231) | MIC (T. menta. 9129) | MIC E. coli AB1932-1 (E. coli AB1932-1) | MIC A. niger 16404 (A. niger 16404) | MIC (C. albicans Wisc.) | MIC E. coli 100/B22 (E. coli 100/B22) | further results
1 | CCCCCCNc1cc[n+](CCCCCCCCCCCCCC[n+]2ccc(NCCCCCC)cc2)cc1 [Example 5C, 1,14-bis-[4-(hexylamino)-1-pyridinium]tetradecane dibromide] | 0.76 µg/mL | 0.76 µg/mL | 0.76 µg/mL | 32 fold | 3.12 µg/mL | 0.1 µg/mL | 1 µg/mL | 3 µg/mL | 0.38 µg/mL | 0.05% | 32 fold | 25 µg/mL | 0.78 µg/mL | 1.5 µg/mL | 0.76 µg/mL |  |  |  |  | Plaque formation in 50% saliva plaque test (footnote 1) ([1]; 0.005%, 50% saliva): plaque formed; Bacterial growth in 50% saliva plaque test (footnote 1) ([1]; 0.05% concentration, 50% saliva): No bacterial growth; MIC C. albicans Wisc. (C. albicans Wisc.; listed as SC): 0.76 µg/mL
2 | CCCCC(CC)CNc1cc[n+](CCCCCCCCCC[n+]2ccc(NCC(CC)CCCC)cc2)cc1 (stereo not shown) [Example 58, 1,10-bis-[4-(2-ethylhexylamino)-1-pyridinium]decane dibromide] | 1.5 µg/mL | 0.76 µg/mL |  | 16 fold | 3.9 µg/mL | 0.25 µg/mL | 1.95 µg/mL |  | 0.24 µg/mL | Ca. 0.005% | 32 fold | 15.6 µg/mL | 0.5 µg/mL | 3 µg/mL | 0.76 µg/mL | 0.37 µg/mL | 6.0 µg/mL | 1.5 µg/mL |  | 
3 | CCCCCCCNc1cc[n+](CCCCCCCCCCCC[n+]2ccc(NCCCCCCC)cc2)cc1 [Example 3, 1,12-bis-[4-(heptylamino)-1-pyridinium]dodecane dibromide] |  |  |  | 8 fold | 3.12 µg/mL | 0.39 µg/mL |  |  | 0.39 µg/mL | 0.1% | 32 fold | 25 µg/mL | 0.78 µg/mL | 1.56 µg/mL |  | 6.25 µg/mL | 3.13 µg/mL | 3.13 µg/mL | 3.13 µg/mL | MIC E. coli Vogel (E. coli Vogel): 1.56 µg/mL; MIC S. pyogen. C203 (S. pyogen. C203): 0.39 µg/mL; MIC T. menta. 9129 (T. menta. 9129): 1.56 µg/mL
4 | CCCCCCCNc1cc[n+](CCCCCCCCC[n+]2ccc(NCCCCCCC)cc2)cc1 [Example 24, 1,9-bis-[4-(heptylamino)-1-pyridinium]nonane dibromide] | 1 µg/mL | 1.95 µg/mL | 1 µg/mL | 16 fold | 1.95 µg/mL | 0.125 µg/mL | 0.5 µg/mL | 3.9 µg/mL | 0.25 µg/mL | Ca. 0.005% | 32 fold | 7.8 µg/mL | 0.25 µg/mL | 1 µg/mL | 0.5 µg/mL |  |  | 1 µg/mL |  | 
5 | CCCCCCCCNc1cc[n+](CCCCCCCC[n+]2ccc(NCCCCCCCC)cc2)cc1 [Example 11, 1,8-bis-[4-(octylamino)-1-pyridinium]octane dibromide] | 1 µg/mL |  | 1 µg/mL | 16 fold | 7.8 µg/mL | 0.5 µg/mL | 1 µg/mL | 3.9 µg/mL | 0.25 µg/mL | 0.05% | 64 fold | 31.2 µg/mL | 0.5 µg/mL | 1 µg/mL | 0.5 µg/mL |  |  | 1 µg/mL | 1.95 µg/mL | 

Reference: US4206215A, “Antimicrobial bis-[4-(substituted-amino)-1-pyridinium]alkanes” (Sterling Drug Inc., priority 1977, dated 1980)
